# According to patent US20110295037A1, “PROCESSES FOR PREPARING CINACALCET HYDROCHLORIDE AND POLYMORPHIC FORMS THEREOF” (MEDICHEM, S.A., priority 2006, published 2011):
# Assay: Particle size distribution (Malvern Mastersizer S, by volume)
# Type: physicochemical
# Conditions: hydrochloride
# Experimental: VI. Particle Size Distribution Method
# The particle size for cinacalcet hydrochloride was measured using a Malvern Mastersizer S particle size analyzer with an MS1 Small Volume Sample Dispersion Unit stirred cell. A 300RF mm lens and a beam length of 2.4 mm were used. Samples for analysis were prepared by dispersing a weighed amount of cinacalcet hydrochloride (approximately 60 mg) in 20 mL of sample dispersant, previously prepared by dilution of 1.5 g of Soybean Lecithin to 200 mL with Isopar G. The suspension was delivered drop-wise to a background corrected measuring cell previously filled with dispersant (Isopar G) until the obscuration reached the desired level. Volume distributions were obtained for three times. After completing the measurements, the sample cell was emptied and cleaned, refilled with suspending medium, and the sampling procedure repeated again. For characterization, the values of D10, D50 and D90 (by volume) were specifically listed, each one being the mean of the nine values available for each characterization parameter.
smiles,measurement,setting,value
"C[C@@H](NCCCc1cccc(C(F)(F)F)c1)c1cccc2ccccc12.Cl [cinacalcet hydrochloride, N-[1-(R)-(−)-(1-naphthyl)ethyl]-3-[3-(trifluoromethyl)phenyl]-1-aminopropane hydrochloride]",particle size distribution D90 (v),after milling,24 μm
same,particle size distribution D90 (v),after recrystallization from heptane-isobutylacetate,263 μm
same,particle size distribution D90 (v),after recrystallization from isobutylacetate,47 μm
